Results on 14 molecules are retold here after US20220378923A1, “BET DEGRADER” (KYOWA KIRIN CO., LTD., priority 2019, published 2022).

For one experiment, the system named is MYC mRNA expression in SU-DHL-4 cells. The experiment can be described thus: Suppressive effect on MYC mRNA expression (Test Example 2). It counts as cell-based, human. As to conditions: Homo sapiens, test compound 100 nmol/L, 6 hours, qRT-PCR corrected by ACTB, GAPDH, HPRT1, read-out: Suppression Rate of MYC mRNA Expression (%). As for the experimental part:
The cells were passaged twice a week at a volume of 20-40 mL so as to maintain a cell concentration of 1×10^6 cells/mL or less. The cultured SU-DHL-4 cells were seeded at 6×10^5 cells/well in a transparent 6-well plate (Code No. 140675, Thermo Fisher Scientific). After seeding, the cells were precultured at 37° C. in a carbon dioxide gas incubator for 18 to 25 hours. […] At this time, the final concentration of DMSO was adjusted to be 0.1 vol %. After adding the test compound, the cells were cultured at 37° C. in a carbon dioxide gas incubator for 6 hours. Then, the cells were collected by centrifugation and used for extraction of mRNA. mRNA extraction from cells was performed using Maxwell® 16 LEV simplyRNA Purification Kits (Code No. AS1270, Promega). The mRNA recovery protocol was performed according to the manufacturer's recommended protocol attached to the kit. […] The cDNA conversion was performed, according to the manufacturer's recommended protocol attached to the kit, in 0.020 mL of the reaction solution, and GeneAmp® PCR System 9700 (Applied Biosystems) was used. The cDNA-converted sample was diluted 10-fold by adding 0.180 mL of RNase Free Water (Code No. 10977-023, Thermo Fisher Scientific) and used for quantitative real-time polymerase chain reaction (qRT-PCR). For the calibration curve of qRT-PCR, 0.08 mL of RNase Free Water was added to a cDNA sample using DMSO as a test compound for 5-fold dilution. Further, two 5-fold dilutions were prepared stepwise, and these three samples were used as the calibration curve samples. The following reagents were used for qRT-PCR: TaqMan Gene Expression Assays, Inventoried (Primer probe: Code No. 4331182, Thermo Fisher Scientific, Assay ID: (i) MYC: Hs00153408_m1, (ii) ACTB: Hs01060665_g1, (iii) GAPDH: Hs04420697_g1, (iv) HPRT1: […] Universal PCR Master Mix, no AmpEraseR UNG (Master Mix: Code No. 4367846, Thermo Fisher Scientific). Primer probe (0.001 mL), Master Mix (0.010 mL), water (0.004 mL) and the diluted cDNA sample (0.005 mL) were mixed, and qRT-PCR analysis was performed. For qRT-PCR analysis, QuantStudio 7 Flex (Thermo Fisher Scientific) or 7500 Fast Real-Time PCR (Applied Biosystems) was used to measure in Fast mode and analyze. […] Corrected MYC expression=A/B • A: MYC expression level • B: Geometric mean of expression levels of ACTB, GAPDH and HPRT1 Using the corrected values, the suppression rate of MYC expression for the wells to which the test compound was not added was calculated by the following formula. […] Corrected MYC expression level in a well containing test compound • D: Corrected MYC expression level in a well to which test compound was not added
`CCC(=O)N1c2ccccc2[C@H](Nc2ccc(C(=O)NCCCNC(=O)c3ccc(N[C@@H]4C[C@H](C)N(C(=O)CC)c5ccccc54)cc3)cc2)C[C@@H]1C` (relative stereo) [Compound 1a, N,N′-(Propane-1,3-diyl)bis(4-{[(2S*,4R*)-2-methyl-1-propionyl-1,2,3,4-tetrahydroquinolin-4-yl]amino}benzamide)]: the inhibition at 0.1 µM is 96.7%. As for `CCC(=O)N1c2ccccc2[C@H](Nc2ccc(C(=O)NC3CCN(C(=O)c4ccc(N[C@@H]5C[C@H](C)N(C(=O)CC)c6ccccc65)cc4)CC3)cc2)C[C@@H]1C` (relative stereo) [Compound 1c, 4-{[(2S*,4R*)-2-Methyl-1-propionyl-1,2,3,4-tetrahydroquinolin-4-yl]amino}-N-[1-(4-{[(2S*,4R*)-2-methyl-1-propionyl-1,2,3,4-tetrahydroquinolin-4-yl]amino}benzoyl)piperidin-4-yl]benzamide], the inhibition at 0.1 µM turned out to be 97.3%. `CCC(=O)N1c2ccccc2[C@H](Nc2ccc(NC(=O)CCNC(=O)c3ccc(N[C@@H]4C[C@H](C)N(C(=O)CC)c5ccccc54)cc3)cc2)C[C@@H]1C` (relative stereo) [Compound 2f, 4-{[(2S,4R)-2-Methyl-1-propionyl-1,2,3,4-tetrahydroquinolin-4-yl]amino}-N-{3-[(4-{[(2S*,4R*)-2-methyl-1-propionyl-1,2,3,4-tetrahydroquinolin-4-yl]amino}phenyl)amino]-3-oxopropyl}benzamide]: the inhibition at 0.1 µM came to 98.6%.

Take `CCC(=O)N1c2ccccc2[C@H](Nc2ccc(NC(=O)C3CN(C(=O)c4ccc(N[C@@H]5C[C@H](C)N(C(=O)CC)c6ccccc65)cc4)C3)cc2)C[C@@H]1C` (relative stereo) [Compound 2h, 1-(4-{[(2S,4R)-2-Methyl-1-propionyl-1,2,3,4-tetrahydroquinolin-4-yl]amino}benzoyl)-N-(4-{[(2S*,4R*)-2-methyl-1-propionyl-1,2,3,4-tetrahydroquinolin-4-yl]amino}phenyl)azetidine-3-carboxamide]: the inhibition at 0.1 µM was 98.2%. In the case of `CCC(=O)N1c2ccccc2[C@H](Nc2ccc(NC(=O)CCSc3ccc(N[C@@H]4C[C@H](C)N(C(=O)CC)c5ccccc54)cc3)cc2)C[C@@H]1C` (relative stereo) [Compound 4e, N-(4-{[(2S*,4R*)-2-Methyl-1-propionyl-1,2,3,4-tetrahydroquinolin-4-yl]amino}phenyl)-3-[(4-{[(2S,4R)-2-methyl-1-propionyl-1,2,3,4-tetrahydroquinolin-4-yl]amino}phenyl)thio]propanamide], the inhibition at 0.1 µM came to 98.4%.

Consider `CCC(=O)N1c2ccccc2[C@H](Nc2ccc(NC(=O)N3CCN(C(=O)c4ccc(N[C@@H]5C[C@H](C)N(C(=O)CC)c6ccccc65)cc4)CC3)cc2)C[C@@H]1C` (relative stereo) [Compound 6m, 4-(4-(((2S,4R)-2-Methyl-1-propionyl-1,2,3,4-tetrahydroquinolin-4-yl)amino)benzoyl)-N-(4-(((2S*,4R*)-2-methyl-1-propionyl-1,2,3,4-tetrahydroquinolin-4-yl)amino)phenyl)piperazine-1-carboxamide], for which the inhibition at 0.1 µM was found to be 97%. With `CCC(=O)N1c2ccccc2[C@H](Nc2ccc(-n3cc(CNC(=O)N4CCC(N[C@@H]5C[C@H](C)N(C(=O)CC)c6ccccc65)CC4)nn3)cc2)C[C@@H]1C` (relative stereo) [Compound 10b, 4-(((2S*,4R*)-2-Methyl-1-propionyl-1,2,3,4-tetrahydroquinolin-4-yl)amino)-N-((1-(4-(((2S,4R)-2-methyl-1-propionyl-1,2,3,4-tetrahydroquinolin-4-yl)amino)phenyl)-1H-1,2,3-triazol-4-yl)methyl)piperidine-1-carboxamide], the inhibition at 0.1 µM stood at 96.6%.

On to `CCC(=O)N1c2ccccc2[C@H](NCc2ccc(C(=O)N3CC(C(=O)Nc4ccc(N[C@@H]5C[C@H](C)N(C(=O)CC)c6ccccc65)cc4)C3)cc2)C[C@@H]1C` (relative stereo) [Compound 10g, 1-(4-((((2S*,4R*)-2-Methyl-1-propionyl-1,2,3,4-tetrahydroquinolin-4-yl)amino)methyl)benzoyl)-N-(4-(((2S,4R)-2-methyl-1-propionyl-1,2,3,4-tetrahydroquinolin-4-yl)amino)phenyl)azetidine-3-carboxamide], for which the inhibition at 0.1 µM came out at 97.2%.

Regarding `CCC(=O)N1c2ccccc2[C@H](NCCCCCCCC(=O)Nc2ccc(N[C@@H]3C[C@H](C)N(C(=O)CC)c4ccccc43)cc2)C[C@@H]1C` (relative stereo) [Compound 12h, 8-(((2S*,4R*)-2-Methyl-1-propionyl-1,2,3,4-tetrahydroquinolin-4-yl)amino)-N-(4-(((2S,4R)-2-methyl-1-propionyl-1,2,3,4-tetrahydroquinolin-4-yl)amino)phenyl)octanamide], the inhibition at 0.1 µM was determined as 96.5%.

As for `CCC(=O)N1c2ccccc2[C@H](NCC23CCC(C(=O)N4CC(C(=O)Nc5ccc(N[C@@H]6C[C@H](C)N(C(=O)CC)c7ccccc76)cc5)C4)(CC2)CC3)C[C@@H]1C` (relative stereo) [Compound 17o, 1-(4-((((2S,4R)-2-Methyl-1-propionyl-1,2,3,4-tetrahydroquinolin-4-yl)amino)methyl)bicyclo[2.2.2]octane-1-carbonyl)-N-(4-(((2S*,4R*)-2-methyl-1-propionyl-1,2,3,4-tetrahydroquinolin-4-yl)amino)phenyl)azetidine-3-carboxamide], the inhibition at 0.1 µM was 97.1%. The same measure, in the same setting: for `Cc1sc2c(c1C)C(c1ccc(C(=O)NCCCNC(=O)c3ccc(C4=N[C@@H](CC(=O)OC(C)(C)C)c5nnc(C)n5-c5sc(C)c(C)c54)cc3)cc1)=N[C@@H](CC(=O)OC(C)(C)C)c1nnc(C)n1-2` [Compound 1b, Di-tert-butyl 2,2′-[(6S,6′S)-({[propane-1,3-diylbis(azanediyl)]bis(carbonyl)}bis(4,1-phenylene))bis(2,3,9-trimethyl-6H-thieno[3,2-f][1,2,4]triazolo[4,3-a][1,4]diazepine-4,6-diyl)]diacetate] the value was 98.4%.

The same experiment, now with this note: test compound 100 nmol/L, 6 hours, qRT-PCR corrected by ACTB, GAPDH, HPRT1.
In the case of `CCC(=O)N1c2ccccc2[C@H](Nc2ccc(NC(=O)C#CCNC(=O)C3CCC(N[C@@H]4C[C@H](C)N(C(=O)CC)c5ccccc54)CC3)cc2)C[C@@H]1C` (relative stereo) [Compound 8g, (1R,4r)-4-(((2S*,4R*)-2-Methyl-1-propionyl-1,2,3,4-tetrahydroquinolin-4-yl)amino)-N-(4-((4-(((2S,4R)-2-methyl-1-propionyl-1,2,3,4-tetrahydroquinolin-4-yl)amino)phenyl)amino)-4-oxobut-2-yn-1-yl)cyclohexane-1-carboxamide], the “Suppression Rate of MYC mRNA Expression (%)” value is given as 96.6%.

Consider `CCC(=O)N1c2ccccc2[C@H](N[C@H]2CC[C@H](NC(=O)C#CCNC(=O)[C@H]3CC[C@H](N[C@@H]4C[C@H](C)N(C(=O)CC)c5ccccc54)CC3)CC2)C[C@@H]1C` (relative stereo) [Compound 9d, (1R,4R)-4-(((2S*,4R*)-2-Methyl-1-propionyl-1,2,3,4-tetrahydroquinolin-4-yl)amino)-N-(4-(((1R,4R)-4-(((2S,4R)-2-methyl-1-propionyl-1,2,3,4-tetrahydroquinolin-4-yl)amino)cyclohexyl)amino)-4-oxobut-2-yn-1-yl)cyclohexane-1-carboxamide], for which the “Suppression Rate of MYC mRNA Expression (%)” value amounted to 98.0%. Same read-out and setting: for `CCC(=O)N1c2ccccc2[C@H](NCCCCC(=O)NCc2cn(-c3ccc(N[C@@H]4C[C@H](C)N(C(=O)CC)c5ccccc54)cc3)nn2)C[C@@H]1C` (relative stereo) [Compound 12f, 5-(((2S*,4R*)-2-Methyl-1-propionyl-1,2,3,4-tetrahydroquinolin-4-yl)amino)-N-((1-(4-(((2S,4R)-2-methyl-1-propionyl-1,2,3,4-tetrahydroquinolin-4-yl)amino)phenyl)-1H-1,2,3-triazol-4-yl)methyl)pentane amide] the value was 97.9%.
